Laboratory results: patent publication US20230073183A1, “IMPROVED URICASE AND METHOD FOR TREATING HYPERURICEMIA USING SAME” (SHANGHAI JUNSHI BIOSCIENCES CO., LTD., priority 2019, published 2023)
Changes are numbered by the printed parent chain. In names and notes the source's numbering stands.

T1: Micrococcus uricase variant AG-2C01-2-PEG (A35C/T194C in AG-00-1, SEQ ID NO: 3; PEGylated) (Arthrobacter globiformis, UniProt D0VWQ1, A35C/T194C)
T1 construct: purified
T1 sequence (D0VWQ1 1-297 A35C/T194C): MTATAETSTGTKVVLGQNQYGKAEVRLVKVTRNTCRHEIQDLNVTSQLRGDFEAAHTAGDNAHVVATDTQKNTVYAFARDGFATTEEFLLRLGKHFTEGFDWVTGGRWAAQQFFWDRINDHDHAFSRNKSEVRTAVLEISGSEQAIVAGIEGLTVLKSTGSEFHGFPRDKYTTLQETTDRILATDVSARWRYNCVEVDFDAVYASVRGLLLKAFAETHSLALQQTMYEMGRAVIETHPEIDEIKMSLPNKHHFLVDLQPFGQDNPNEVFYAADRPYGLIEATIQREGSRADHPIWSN

T2: Micrococcus uricase variant AG-2C12-PEG (S142C/E216C in AG-00-1, SEQ ID NO: 3; PEGylated) (Arthrobacter globiformis, UniProt D0VWQ1, E216C/S142C)
T2 construct: purified
T2 sequence (D0VWQ1 1-297 S142C/E216C): T1 sequence (D0VWQ1 1-297 A35C/T194C) with C35A, S142C, C194T, E216C

T3: Micrococcus uricase variant AG-2C13-PEG (A35C/S288C in AG-00-1, SEQ ID NO: 3; PEGylated) (Arthrobacter globiformis, UniProt D0VWQ1, A35C/S288C)
T3 construct: purified
T3 sequence (D0VWQ1 1-297 A35C/S288C): T1 sequence (D0VWQ1 1-297 A35C/T194C) with C194T, S288C

T4: reference uricase MEDI4945 (SEQ ID NO: 2) (Arthrobacter globiformis, UniProt D0VWQ1, N33C/R49S/T11C)
T4 sequence (D0VWQ1 with tags, fused parts or gaps T11C/N33C/R49S): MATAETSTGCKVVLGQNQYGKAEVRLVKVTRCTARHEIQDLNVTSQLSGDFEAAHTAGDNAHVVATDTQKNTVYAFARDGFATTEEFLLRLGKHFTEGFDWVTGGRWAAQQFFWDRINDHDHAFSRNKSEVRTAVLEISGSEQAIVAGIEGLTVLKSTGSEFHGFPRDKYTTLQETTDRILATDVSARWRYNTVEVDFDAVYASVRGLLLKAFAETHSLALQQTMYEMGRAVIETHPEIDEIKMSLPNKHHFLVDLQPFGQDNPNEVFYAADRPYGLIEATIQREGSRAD

B1: reference uricase MEDI4945 (SEQ ID NO: 2) (Arthrobacter globiformis; N33C/R49S/T11C) (protein)
chain: T4 sequence (D0VWQ1 with tags, fused parts or gaps T11C/N33C/R49S)

Columns and labels:
Type in all cases: biochemical
[1] = biological target: T1, Micrococcus uricase variant AG-2C01-2-PEG (A35C/T194C in AG-00-1, SEQ ID NO: 3; PEGylated); test: Enzyme activity kinetic study of PEGylated uricase with uric acid; settings: Tris-HCl pH 8.5, 37° C.; turnover number, substrate converted within one second
Procedure: (§1) By using a method similar to that in Example 1 to introduce Cys mutations, the following molecules were prepared: AG-2C12, AG-2C13, AG-2C16, AG-2C17, AG-1C13-1, AG-2C01, AG-2C05-1, AG-2C01-1 and AG-2C12-1.
(§2) To 2 mg of a uricase (100 mM PBS buffer, pH=7.0, 150 mM NaCl) were sequentially added TCEP.HCl (0.5 mg, tris(2-carboxyethyl)phosphine hydrochloride) and M-MAL-PEG-10K (27.5 mg, maleimide polyethylene glycol, molecular weight of 10,000 Da). The mixture was allowed to react at room temperature for 2 h. The reaction mixture was purified by ion-exchange chromatography to obtain a PEGylated uricase.
(§3) The Cys mutation sites selected above were paired for PEGylation modification and uricase activity evaluation.
(§4) A. Enzyme Activity Kinetic Study of PEGylated […]
(§5) Tris-HCl buffer system (pH 8.5) was used. The stock solution for uricase working solutions was 2 mM uric acid, which was stored at 4° C. Process of enzyme activity assay:
(§6) The temperature was set at 37° C.
(§7) Substrate (uric acid) concentration gradients: 600 μmol, 500 μmol, 400 μmol, 200 μmol, 100 μmol, 50 μmol, 25 μmol, and 12.5 μmol.
(§8) 50 μL of the above uric acid solution and 30 μL of the above Tris-HCl buffer were first added to a 96-well plate and incubated at 37° C. for 20 min. Then 20 μL of an appropriately diluted uricase solution (0.004 mg/mL) was rapidly added to the 96-well plate. Procedure setting: reaction for 10 min, one data reading every 20 s, and initiation of reaction.

[2] = biological target: T2, Micrococcus uricase variant AG-2C12-PEG (S142C/E216C in AG-00-1, SEQ ID NO: 3; PEGylated); test: as above; settings: Tris-HCl pH 8.5, 37° C.; turnover number, substrate converted within one second
Procedure: as §1, §2, §3, §4, §5, §6, §7, §8

[3] = biological target: T3, Micrococcus uricase variant AG-2C13-PEG (A35C/S288C in AG-00-1, SEQ ID NO: 3; PEGylated); test: as above; settings: Tris-HCl pH 8.5, 37° C.; turnover number, substrate converted within one second
Procedure: as §1, §2, §3, §4, §5, §6, §7, §8

[4] = biological target: T4, reference uricase MEDI4945 (SEQ ID NO: 2); test: Enzyme activity kinetic study of reference uricase with uric acid; settings: Tris-HCl pH 8.5, 37° C.; turnover number, substrate converted within one second
Procedure: (§9) A reference uricase MEDI4945 was synthesized using a method similar to that described above, having an amino acid sequence of SEQ ID NO: 2. MEDI4945 is the uricase disclosed in International Application No. PCT/US2016/032415, having an amino acid sequence shown below:
as §4, §5, §6, §7, §8

[5] = substrate: O=c1[nH]c(=O)c2[nH]c(=O)[nH]c2[nH]1; test: as above; settings: other: Tris-HCl pH 8.5, 37° C., uric acid 12.5-600 μmol
Procedure: as §9, §4, §5, §6, §7, §8

Row | Molecule | Kcat [1] | Kcat [2] | Kcat [3] | Kcat [4] | Km [5]
1 | O=c1[nH]c(=O)c2[nH]c(=O)[nH]c2[nH]1 [uric acid] | 5.4 | 5.3 | 3.6 | 2.6 | –
2 | B1 | – | – | – | – | 101 µM
